Measured values published in patent US8946302B2, “Selective sigma-1 receptor ligands” (Wisconsin Alumni Research Foundation, priority 2008, dated 2015).
Like-named read-outs stand apart in the source and are kept apart here. Marks after values point to notes of the source that are not given here.

Key:
sigma-2 receptor [1] = target: sigma-2 receptor (Homo sapiens, UniProt Q5BJF2); settings: literature value; cited from earlier work
sigma-1 receptor [2] = target: sigma-1 receptor (Homo sapiens, UniProt Q99720); settings: literature value; cited from earlier work
sigma-1 receptor [3] = target: T1, sigma-1 receptor (Cavia porcellus, UniProt Q60492); design: from tissue; host or cells: guinea pig liver membranes; settings: from Fontanilla et al. Biochemistry 2008; cited from earlier work
MCF7 = assay: Cytotoxicity assay MCF7; assay type: cell-based; settings: Homo sapiens, HU Breast, read-out: IC50 (SE) growth inhibition
Experimental: (§1) Multi-plex cytotoxicity assays were performed by the Keck-UWCCC Small Molecule Screening Facility (Madison, Wis.). Specific methodology can be found online at http://hts.wisc.edu/Resources.htm#mpa.

Du145 = assay: Cytotoxicity assay Du145; assay type: cell-based; settings: Homo sapiens, DU-145, HU Prostate, read-out: IC50 (SE) growth inhibition
Experimental: as §1

HT-29 = assay: Cytotoxicity assay HT-29; assay type: cell-based; settings: Homo sapiens, HU Colorectal, read-out: IC50 (SE) growth inhibition
Experimental: as §1

HCT-45 = assay: Cytotoxicity assay HCT-45; assay type: cell-based; settings: Homo sapiens, HU Colorectal, read-out: IC50 (SE) growth inhibition
Experimental: as §1

NCI-H460 = assay: Cytotoxicity assay NCI-H460; assay type: cell-based; settings: Homo sapiens, HU lung, read-out: IC50 (SE) growth inhibition
Experimental: as §1

HI299 = assay: Cytotoxicity assay HI299; assay type: cell-based; settings: Homo sapiens, HU Lung, read-out: IC50 (SE) growth inhibition
Experimental: as §1

A549 = assay: Cytotoxicity assay A549; assay type: cell-based; settings: Homo sapiens, HU lung, read-out: IC50 (SE) growth inhibition
Experimental: as §1

SKOV-3 = assay: Cytotoxicity assay SKOV-3; assay type: cell-based; settings: Homo sapiens, SK-OV-3, HU Ovarian, read-out: IC50 (SE) growth inhibition
Experimental: as §1

MB-MDA-231 = assay: Cytotoxicity assay MB-MDA-231; assay type: cell-based; settings: Homo sapiens, HU Breast, read-out: IC50 (SE) growth inhibition
Experimental: as §1

tumor cell lines = assay: Cytotoxicity assays, various tumor cell lines (statements in words); assay type: cell-based, human
Experimental: Because sigma-1 receptors are overexpressed in numerous tumor cell lines, which include breast cancer, lung carcinoma, renal carcinoma, colon carcinoma, sarcoma, brain tumors, melanoma, glioblastoma, neuroblastoma, and prostate cancer, the ability of the compounds to inhibit the growth of various tumor cell lines were tested.
as §1

sigma-2 receptor [4] = target: T2, sigma-2 receptor (Rattus norvegicus, UniProt Q5U3Y7); design: from tissue; host or cells: rat liver membranes; settings: from Fontanilla et al. Biochemistry 2008; cited from earlier work
T2 sequence (Q5U3Y7 1-176): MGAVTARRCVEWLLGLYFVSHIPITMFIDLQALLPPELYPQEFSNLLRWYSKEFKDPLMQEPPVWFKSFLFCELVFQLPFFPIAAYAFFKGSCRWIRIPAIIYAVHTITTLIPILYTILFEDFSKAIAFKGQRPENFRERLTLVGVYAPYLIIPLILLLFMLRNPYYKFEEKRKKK

MCP10A = assay: Cytotoxicity assay MCP10A; assay type: cell-based; settings: Homo sapiens, HU Breast, read-out: IC50 (SE) growth inhibition
Experimental: as §1

SF268 = assay: Cytotoxicity assay SF268; assay type: cell-based; settings: Homo sapiens, SF-268, HU CNS, read-out: IC50 (SE) growth inhibition
Experimental: as §1

[5] = test system: INa in neonatal mouse cardiac myocytes; assay: Patch clamp INa in neonatal cardiac myocytes from WT and sigma-1 receptor KO mice; assay type: cell-based; settings: n=7
Experimental: Neonatal mouse cardiac myocytes were enzymatically isolated and cultured on laminin-coated glass coverslips as previously described (33, 34) with minor changes (26).
(§2) INa was recorded using whole-cell patch clamp at room temperature. All patch clamp solutions used as well as patch clamp methodology and instrumentation details are previously described (26) with the exception of testing INa inhibition with 100 μM DMT.

sigma-1 receptor [6] = target: T3, sigma-1 receptor (Rattus norvegicus, UniProt Q9R0C9); assay: Protection of [125I]-IACoc photolabeling in rat liver membranes; assay type: binding
T3 construct: from tissue; host or cells: rat liver membranes
Experimental: (§5) Rat liver membranes (100 μg/lane) were suspended in the presence or absence of the protecting drugs. […] Percent band intensities are shown compared to controls performed in the absence of protecting ligand (−).

hNav1.5 = assay: Patch clamp INa in COS-7 cells transiently transfected with hNav1.5; assay type: cell-based, human; settings: 100 μM, n=3
Experimental: (§3) To evaluate the capacity of DMT to induce physiological responses by binding to sigma receptors, the action of DMT on voltage-activated Na^+ current was examined. […] Application of 100 μM DMT inhibited INa by 62±3% (n=3), which reversed upon DMT removal. With hNav1.5 transiently transfected into COS-7 cells, 100 μM DMT inhibited INa by only 22±4% (n=3), but photolabeling has shown that these cells have much lower levels of endogenous sigma-1 receptor compared to HEK293 cells (26) (FIG. 7b).
(§4) HEK293 cells stably expressing hNav1.5 were provided by Dr. J. C. Makielski at the University of Wisconsin-Madison (32). COS-7 cells were transiently transfected with recombinant cDNA encoding hNav1.5 using Lipofectamine. Both cell types were cultured on glass coverslips at 37° C. in 5% CO2/air atmosphere, and used for electrophysiological recordings within 3-5 days.
as §2

[7] = test system: human cardiac Na+ channel hNav1.5; assay: Patch clamp INa in HEK293 cells stably expressing hNav1.5; assay type: cell-based; settings: 100 μM, n=3
Experimental: as §3, §4, §2

[8] = test system: WT and sigma-1 receptor knockout mice; assay: Open-field hypermobility assay in WT and sigma-1 receptor KO mice; assay type: in vivo, mouse; settings: 2 mg/kg i.p. two hours after pargyline 75 mg/kg i.p.
Experimental: All mice were maintained on a normal light/dark cycle and handled in accordance with Animal Care and Use Guidelines of the University of Wisconsin, Madison. […] Mice were first acclimatized to the experimental room for one hour. WT and KO mice were injected with the monoamine oxidase inhibitor, pargyline (75 mg/kg, i.p.) two hours prior to DMT or vehicle injection(28). […] Each condition represents 8 to 14 mice (n=8-14). […] A computer program was used to quantitate movement and after each experiment, 70% ethanol was used to remove odors from the open-field.

sigma-1 receptor [9] = target: T1, sigma-1 receptor; assay: Affinity for the sigma-1 receptor (Table 3); assay type: binding; design: from tissue
sigma-1 receptor [10] = target: T3, sigma-1 receptor; assay: Protection of [125I]IAF photolabeling of the sigma-1 receptor in rat liver membranes; assay type: binding
Experimental: as §5

T3 sequence (Q9R0C9 whole entry): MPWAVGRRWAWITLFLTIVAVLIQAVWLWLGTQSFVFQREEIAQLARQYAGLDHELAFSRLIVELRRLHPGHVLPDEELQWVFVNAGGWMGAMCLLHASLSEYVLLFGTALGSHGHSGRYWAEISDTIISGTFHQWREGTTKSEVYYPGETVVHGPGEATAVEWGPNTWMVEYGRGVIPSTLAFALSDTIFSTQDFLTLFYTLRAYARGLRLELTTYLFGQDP
T1 sequence (Q60492 whole entry): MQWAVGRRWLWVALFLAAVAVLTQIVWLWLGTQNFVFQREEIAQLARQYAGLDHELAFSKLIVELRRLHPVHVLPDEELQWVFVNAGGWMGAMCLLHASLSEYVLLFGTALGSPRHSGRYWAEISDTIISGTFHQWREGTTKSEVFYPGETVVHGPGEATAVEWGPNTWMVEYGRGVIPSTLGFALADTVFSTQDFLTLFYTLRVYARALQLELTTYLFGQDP
Chain of sigma-1 receptor (Homo sapiens, UniProt Q99720) (Q99720 whole entry, species assumed): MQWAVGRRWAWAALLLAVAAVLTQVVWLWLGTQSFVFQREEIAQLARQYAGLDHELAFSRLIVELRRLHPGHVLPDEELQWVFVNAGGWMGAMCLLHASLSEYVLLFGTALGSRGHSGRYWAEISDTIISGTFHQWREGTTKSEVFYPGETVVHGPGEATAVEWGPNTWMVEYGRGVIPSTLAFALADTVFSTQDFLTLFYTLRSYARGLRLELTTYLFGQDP
Chain of sigma-2 receptor (Homo sapiens, UniProt Q5BJF2) (Q5BJF2 whole entry, species assumed): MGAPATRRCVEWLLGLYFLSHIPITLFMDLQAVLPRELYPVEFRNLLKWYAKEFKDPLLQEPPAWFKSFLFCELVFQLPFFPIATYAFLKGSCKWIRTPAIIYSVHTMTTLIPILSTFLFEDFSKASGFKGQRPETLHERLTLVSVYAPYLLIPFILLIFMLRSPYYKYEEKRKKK

In the case of `CC1CN(CCCc2ccc(N=[N+]=[N-])c([125I])c2)CC(C)O1` (centres unmarked) [[^125I]IAF, 1-N-(2′,6′-dimethyl-morpholino)-3-(4-azido-3-[^125I]iodo-phenyl)propane], the Kd (sigma-2 receptor [1]) is listed as 2.78 µM and the Kd (sigma-1 receptor [2]) is listed as 0.194 µM.

For `CCCN(CCCc1ccc(F)cc1)CCc1ccc(N=[N+]=[N-])c(I)c1` [Compound 19], the Kd (sigma-1 receptor [3]) is listed as 7.24 µM, the “Ratio (σ2/σ1)” value (sigma-1 receptor [3]) is listed as 0.178^c and the IC50 (MCF7) is listed as 16.8 µM. It also gave an IC50 (Du145) of 13.1 µM, an IC50 (HT-29) of 36.4 µM and an IC50 (HCT-45) of 54.1 µM. It also gave an IC50 (NCI-H460) of 40.3 µM, an IC50 (HI299) of 90.8 µM and an IC50 (A549) of over 100 µM. For the same compound, the IC50 (SKOV-3) was over 100 µM, the IC50 (MB-MDA-231) was 21.6 µM and the “cytotoxicity / tumor cell growth inhibition” value (tumor cell lines) was “non-specifically cytotoxic in almost all the cell lines tested”. For the same compound, the Kd (sigma-2 receptor [4]) was 1.29 µM, the IC50 (MCP10A) was 86.6 µM and the IC50 (SF268) was 38.8 µM.

For `CN(C)CCc1c[nH]c2ccccc12` [DMT, 2-(1H-indol-3-yl)-N,N-dimethylethylamine], the inhibition at 100 µM ([5]; KO myocytes) was 7 ± 2%, the inhibition at 100 µM ([5]; WT neonatal cardiac myocytes) was 29 ± 3% and the “protection of [125I]-IACoc photolabeling of the 26 kDa sigma-1 receptor” value (sigma-1 receptor [6]; 50 μM) was 61%. For the same compound, the “protection of [125I]-IACoc photolabeling of the 26 kDa sigma-1 receptor” value (sigma-1 receptor [6]; 100 μM) was about 100%, the “inhibition of INa” value (hNav1.5) was 22±4% and the “inhibition of INa” value [7] was 62±3%. For the same compound, the “distance traveled in open-field assay (hypermobility)” value ([8]; WT mice) was 7025±524.1 cm, the “distance traveled in open-field assay (hypermobility)” value ([8]; sigma-1 receptor KO mice) was 2328±322.9 cm and the Kd (sigma-1 receptor [9]) was 14.6 µM. The “protection of [125I]IAF photolabeling of the sigma-1 receptor” value (from here on “protection … of the sigma-1 receptor”) (sigma-1 receptor [10]; 10 μM) was 31%, the “protection … of the sigma-1 receptor” value (sigma-1 receptor [10]; 50 μM) was 43% and the “protection … of the sigma-1 receptor” value (sigma-1 receptor [10]; 100 μM) was 69%.
